In patent publication US20250041461A1, “[177LU] LUTETIUM-PSMA I&T COMPOSITION AND DOSIMETRY, KIT, METHOD OF MAKING, AND METHOD OF USING THEREOF” (Curium US LLC, priority 2023, published 2025):
Several values for one entry are separate records, joined by “and”; a condition that tells them apart may be missing. Equal values may be shown once.

Assay: Dosimetry sub-study, first 12 patients, cycle 1 (SPECT/CT, TIAC, OLINDA 2.2.3)
Assay type: in vivo, human
Conditions: for dose estimate, Mean: Eclipse; for Extrapolation of Absorbed Dose to 6 Cycles Assuming 7.4 GBq per cycle: kidneys; for Kidneys Absorbed Dose Assuming 7.4 GBq per cycle: one cycle; for Effective Dose Cycle 1: whole body
Experimental: Twelve subjects were administered a target activity of 7.4 GBq (mean 7.56±0.17 GBq) of [^177Lu]Lu-PSMA-I&T. Following the infusion, subjects underwent single photon emission computed tomography (SPECT)/computed tomography (CT) imaging at four timepoints (4 hours, 24 hours, 48 hours, and 168 hours). Image data was analyzed to compute time integrated activity coefficients (TIAC) in each organ of interest defined a priori in the independent review charter and in organs showing appreciable and meaningful [^177Lu]Lu-PSMA I&T activity. Segmented organs included kidneys, bladder, liver, lacrimal glands, salivary glands, intestine, lumbar vertebrae L2-L4, and whole body. To compute subject-specific organ doses, organ-level TIAC data were entered into Organ Level Internal Dose Assessment (OLINDA 2.2.3) and resulting organ doses for each target organ and whole-body effective dose were collated and averaged.
Patients received SPECT/CT imaging (anatomical coverage included the salivary gland in most of the patients and extended through the pelvis) following the injection of 7.4 (±10%) GBq of [^177Lu]Lu-PSMA-I&T (detailed injected doses are reported in Table 36). All patients completed the first treatment cycle, and the acquisition of images was carried out. To note, for patient 37-016 the 168 hours SPECT/CT timepoint wasn't acquired, whereas patient 12-004 48 hours scan was presenting unrealistically high values, and the 48 hours scan was therefore excluded from further analysis.
The imaging data was analyzed using Invicro's VivoQuant software, a validated software used in a 21 CFR § 11-compliant workflow. The general quantification approach was based on the principles detailed in the Medical Internal Radiation Dose (MIRD) Pamphlet No. 16, No 23, and No 26, as appropriate.
Each SPECT image was co-registered with its corresponding CT. Image calibration was performed to convert the counts measured on the SPECT images to activity (Bq). The same SPECT/CT system was used in each patient for the entirety of the dosimetry study.
Regions of interest (ROI) (kidneys, bladder, liver, lumbar vertebrae L2-L4, lacrimal glands, salivary glands (parotid and submandibular glands), and whole body) were drawn on each dataset by a trained image analyst. […] Lumbar vertebrae L2-L4 was delineated for all patients on the CT images to derive red marrow doses.^4 For kidneys, a ROI was drawn on the SPECT image encompassing all the uptake seen in the kidneys. Similarly for lacrimal glands, all the uptake observed on the SPECT image at the lacrimal glands' location was segmented. [^177Lu]Lu-PSMA-I&T distribution in a patient imaged over time is represented in FIG. 16.
Time-activity curves of the activity in each ROI as a function of time were plotted. These curves were normalized by the known injected activity to arrive at units of fraction of injected activity. Calculations of time-integrated activity coefficient (TIAC, in units of hours) were performed for each region of interest listed above.
Clearance of the tracer was derived from a data-appropriate fit of each organ time activity curve (TAC). Depending on the shape of the TAC, the data was fitted with the sum of one, two or three exponentials or using a rise and fall model. TIACs were calculated through analytical integration of the curve fit extrapolated to infinite. […] The remainder activity was determined by subtracting the cumulative organ TIACs from the whole body TIAC.
Organ TIACs were inputted into Organ Level Internal Dose Assessment, OLINDA 2.2.3 for the computation of organ and whole-body absorbed doses and effective dose (computed using ICRP-103 weighing factors). ICRP-89 derived male phantom was used for dose estimation. Organs and body weights as defined by ICRP-89 were scaled based on height and mass using the patient effective mass. Kidney volumes were measured for each patient on the CT images and used for the kidneys mass of the ICRP-89 phantom assuming a density of 1 g/ml. […]

[1] = individual subjects, listed as [^177Lu]Lu-PSMA-I&T

O=C([O-])CC[C@H](NC(=O)N[C@@H](CCCCNC(=O)CCCCCCC(=O)NCCCC[C@@H](NC(=O)[C@@H](Cc1ccccc1)NC(=O)[C@@H](Cc1ccc(O)c(I)c1)NC(=O)CC[C@H](C(=O)[O-])N1CCN(CC(=O)[O-])CCN(CC(=O)[O-])CCN(CC(=O)[O-])CC1)C(=O)[O-])C(=O)[O-])C(=O)[O-].[177Lu+3].[H+].[H+].[H+].[H+].[H+] [^177Lu-PSMA I&T, (3S,7S,26R,29R,32R,37R)-29-benzyl-32-(4-hydroxy-3-iodobenzyl)-5,13,20,28,31,34-hexaoxo-37-(4,7,10-tris(carboxymethyl)-1,4,7,10-tetraazacyclododecan-1-yl)-4,6,12,21,27,30,33-heptaazaheptatriacontane-1,3,7,26,37-pentacarboxylic acid; lutetium-177 (III)]
Mean whole body effective dose (12 patients, cycle 1): 0.095±0.048 mSv/MBq | Whole-body time integrated activity coefficient, mean (12 patients, cycle 1): 24.1 ± 18.7 h | absorbed dose, kidneys (12 patients, cycle 1): 0.43±0.18 Gy/GBq | absorbed dose, lacrimal glands (12 patients, cycle 1): 0.67±0.33 Gy/GBq | absorbed dose, left colon (12 patients, cycle 1): 0.54±0.42 Gy/GBq | absorbed dose, rectum (12 patients, cycle 1): 0.52±0.40 Gy/GBq | absorbed dose, red marrow (12 patients, cycle 1): 0.08±0.15 Gy/GBq | absorbed dose, right colon (12 patients, cycle 1): 0.30±0.23 Gy/GBq | absorbed dose, salivary glands (12 patients, cycle 1): 0.13±0.08 Gy/GBq | absorbed dose, urinary bladder wall (12 patients, cycle 1): 0.38±0.03 Gy/GBq | Whole-body time integrated activity coefficients, mean (12 patients, cycle 1, 7.4 GBq): 24.1 ± 18.7 h | estimated absorbed dose for the kidneys after 6 cycles, max (12 patients, 7.4 GBq per cycle): 35.83 Gy | estimated absorbed dose for the kidneys after 6 cycles, min (12 patients, 7.4 GBq per cycle): 9.9 Gy | estimated mean absorbed dose for the kidneys after 6 cycles (12 patients, 7.4 GBq per cycle, listed as [^177Lu]Lu-PSMA-I&T): 19.3 Gy and 19.3±8.0 Gy | Absorbed Dose, Mean (Adrenals, cycle 1, 12 patients): 0.03 Gy/GBq | Absorbed Dose, Mean (Brain, cycle 1, 12 patients): 0.02 Gy/GBq | Absorbed Dose, Mean (Esophagus, cycle 1, 12 patients): 0.02 Gy/GBq | Absorbed Dose, Mean (Eyes, cycle 1, 12 patients): 0.02 Gy/GBq | Absorbed Dose, Mean (Gallbladder Wall, cycle 1, 12 patients): 0.02 Gy/GBq | dose estimate, Mean (Heart Wall): 0.02 Gy/GBq | Absorbed Dose, Mean (Heart Wall, cycle 1, 12 patients): 0.02 Gy/GBq | dose estimate, Mean (Kidneys): 0.43 Gy/GBq | Absorbed Dose, Mean (Kidneys, cycle 1, 12 patients): 0.43 Gy/GBq | dose estimate, Mean (Lacrimal gland): 0.67 Gy/GBq | Absorbed Dose, Mean (Lacrimal glands (OLINDA sphere model), cycle 1): 0.67 Gy/GBq | dose estimate, Mean (Left colon): 0.54 Gy/GBq | Absorbed Dose, Mean (Left colon, cycle 1, 12 patients): 0.54 Gy/GBq | dose estimate, Mean (Liver): 0.04 Gy/GBq | Absorbed Dose, Mean (Liver, cycle 1, 12 patients): 0.04 Gy/GBq | Absorbed Dose, Mean (Lungs, cycle 1, 12 patients): 0.02 Gy/GBq | Absorbed Dose, Mean (Osteogenic Cells, cycle 1, 12 patients): 0.05 Gy/GBq | Absorbed Dose, Mean (Pancreas, cycle 1, 12 patients): 0.02 Gy/GBq | Absorbed Dose, Mean (Prostate, cycle 1, 12 patients): 0.02 Gy/GBq | dose estimate, Mean (Rectum): 0.52 Gy/GBq | Absorbed Dose, Mean (Rectum, cycle 1, 12 patients): 0.52 Gy/GBq | dose estimate, Mean (Red Marrow): 0.08 Gy/GBq | Absorbed Dose, Mean (Red Marrow, cycle 1, 12 patients): 0.08 Gy/GBq | dose estimate, Mean (Right colon): 0.30 Gy/GBq | Absorbed Dose, Mean (Right colon, cycle 1, 12 patients): 0.30 Gy/GBq | Absorbed Dose, Mean (Salivary Glands, cycle 1, 12 patients): 0.13 Gy/GBq | dose estimate, Mean (Salivary glands): 0.13 Gy/GBq | Absorbed Dose, Mean (Small Intestine, cycle 1, 12 patients): 0.06 Gy/GBq | dose estimate, Mean (Spleen): 0.03 Gy/GBq | Absorbed Dose, Mean (Spleen, cycle 1, 12 patients): 0.03 Gy/GBq | Absorbed Dose, Mean (Stomach Wall, cycle 1, 12 patients): 0.02 Gy/GBq | Absorbed Dose, Mean (Testes, cycle 1, 12 patients): 0.02 Gy/GBq | Absorbed Dose, Mean (Thymus, cycle 1, 12 patients): 0.02 Gy/GBq | dose estimate, Mean (Thyroid): 0.02 Gy/GBq | Absorbed Dose, Mean (Thyroid, cycle 1, 12 patients): 0.02 Gy/GBq | Absorbed Dose, Mean (Total Body, cycle 1, 12 patients): 0.03 Gy/GBq | Absorbed Dose, Mean (Urinary Bladder Wall, cycle 1, 12 patients): 0.38 Gy/GBq | dose estimate, Mean (Urinary bladder wall): 0.38 Gy/GBq | Whole Body TIAC (cycle 1, Mean of 12 subjects): 24.1 h | Kidneys Absorbed Dose (cycle 1, Mean of 12 subjects (Table 41)): 0.43 Gy/GBq | Kidneys Absorbed Dose (cycle 1, individual subjects (Table 41), listed as [^177Lu]Lu-PSMA-I&T): 0.64 Gy/GBq and 0.34 Gy/GBq and 0.81 Gy/GBq and 0.29 Gy/GBq and 0.27 Gy/GBq (2×) and 0.22 Gy/GBq and 0.48 Gy/GBq and 0.32 Gy/GBq and 0.54 Gy/GBq and 0.41 Gy/GBq and 0.57 Gy/GBq | Whole Body TIAC (cycle 1, individual subjects, listed as [^177Lu]Lu-PSMA-I&T): 8.2 h and 17.2 h and 41.7 h and 14.4 h and 69.7 h and 43.7 h and 11.1 h and 12.6 h and 19.7 h and 14.2 h and 8.5 h and 27.6 h | Kidneys Absorbed Dose (cycle 1, individual subjects, listed as [^177Lu]Lu-PSMA-I&T, absorbed dose per injected activity, Gy/GBq): 0.27 Gy/GBq (2×) and 0.22 Gy/GBq and 0.48 Gy/GBq and 0.32 Gy/GBq and 0.54 Gy/GBq and 0.41 Gy/GBq and 0.57 Gy/GBq and 0.64 Gy/GBq and 0.34 Gy/GBq and 0.81 Gy/GBq and 0.29 Gy/GBq | Kidneys Absorbed Dose (cycle 1, individual subjects, listed as [^177Lu]Lu-PSMA-I&T, total absorbed dose, Gy): 2.00 Gy and 2.36 Gy and 3.99 Gy and 3.08 Gy and 4.48 Gy and 2.26 Gy | Extrapolation of Absorbed Dose to 6 Cycles Assuming 7.4 GBq per cycle (Mean of 12 subjects): 19.3 Gy | Extrapolation of Absorbed Dose to 6 Cycles Assuming 7.4 GBq per cycle [1]: 28.5 Gy and 15.0 Gy and 35.8 Gy and 13.0 Gy and 11.8 Gy and 9.9 Gy and 21.3 Gy and 12.0 Gy and 14.0 Gy and 23.8 Gy and 18.0 Gy and 25.1 Gy | Kidneys Absorbed Dose Assuming 7.4 GBq per cycle (Mean of 12 subjects): 3.2 Gy | Kidneys Absorbed Dose Assuming 7.4 GBq per cycle [1]: 4.8 Gy and 2.5 Gy and 6.0 Gy and 2.2 Gy and 2.0 Gy (2×) and 1.7 Gy and 3.6 Gy and 2.3 Gy and 4.0 Gy and 3.0 Gy and 4.2 Gy | Effective Dose Cycle 1 (Mean of 12 subjects): 0.09 mSv/MBq | Effective Dose Cycle 1 [1]: 0.03 mSv/MBq (2×) and 0.09 mSv/MBq and 0.12 mSv/MBq and 0.11 mSv/MBq (2×) and 0.16 mSv/MBq and 0.19 mSv/MBq and 0.07 mSv/MBq (2×) and 0.06 mSv/MBq and 0.08 mSv/MBq
